Each compound was assayed on mitogen-activated protein kinase (MAPK) (assay: Western blot of MAPK phosphorylation in FAO hepatoma cells). Details: not given.
Format: cell-based, rat
Experimental: FAO cells are related to H4IIE since both cell lines were derived from Reuber H35 cells (Richardson et al., 1969, J. Cell Biol. 40: 236-247). […] FAO hepatoma cells were propagated under the same culture conditions used for H4IIE cells. Quiescent FAO cells were obtained by placing the cells into serum-free medium for 3 days.
Cultures of quiescent H4IIE cells or quiescent FAO cells were placed into 12-well culture dishes containing 2 mL serum-free medium, and then stimulated by direct addition of the inhibitors listed in Table 1 (volumes of additions were 10 μL or less) without replacing the medium. Inhibitors were added 10 minutes before the stimulating agents except for pertussis toxin which was added 4 hours prior. The cells in 12-well culture dishes were incubated with stimulating agents for 6 minutes and rinsed with phosphate buffered saline (PBS; 0.9% NaCl, 0.1 M Na3PO4, pH 7.1).
Cellular protein extracts were prepared by addition of 200 μL 2×SDS/gel loading buffer (0.125 M Tris pH 6.8, 2% SDS, 10% glycerol) to H4IIE cells in 12-well culture dishes. The samples were briefly sonicated, and protein content measured using the BCA protein assay kit. Aliquots containing equal amounts of protein were mixed with bromophenol blue (0.5% (w/v) final concentration) and 2-mercaptoethanol (5% (v/v) final concentration), heated at 95° C. and loaded onto 7.5% or 10% polyacrylamide gels. […] Primary antibodies (diluted 1:1000 in 3% (w/v) BSA) were incubated with the membrane for 60 min at 22° C. Membranes were subsequently washed four times and incubated for an additional 60 min at 1 8-22° C. in 1% (w/v) BSA-TBST with diluted HRP-coupled secondary antibody (1:10 000). HRP was detected using the ECL chemiluminescent system after the membranes had been washed four times.
(§1) Quantification of data obtained on film (Kodak X-omat) was accomplished with a GS800 imaging densitometer (Bio-Rad Laboratories) under nonsaturating conditions with local background subtraction. […]
For `OC1C(O)C(O)C(O)C(O)C1O` [D-CI, D-chiro-inositol], the “phosphorylation of MAPK in FAO cells (FIG. 10)” value (“phosphorylation of MAPK” below) was “did not”. With `O[C@H]1[C@H](O)[C@@H](O)[C@H](O)[C@@H](O)[C@H]1O` [MI, myo-inositol] the “phosphorylation of MAPK” value was “did not”. With “insulin: Insulin (Sigma-Aldrich) dissolved in water, positive comparator” the “phosphorylation of MAPK” value was “stimulated MAPK phosphorylation”.

What follows are compounds tested on STAT3 (Tyr705) (assay: Western blot of STAT3 phosphorylation in H4IIE cells). Details: 6 minutes.
Format: cell-based, rat
Experimental: (§2) Tissue culture media, antibiotics, fetal bovine serum (FBS) and Nunc tissue culture plates were purchased from Invitrogen Canada Inc. (Burlington, Ontario, Canada, L7P 1A1). Insulin (Sigma-Aldrich Canada Ltd., Oakville, Ontario, Canada, L6H 6J8) was dissolved in water and added directly to cells at a concentration of 250 nM unless otherwise indicated. The BWE was prepared and analyzed as described in Example 1. Two μL of the BWE were added directly to cells unless otherwise indicated. This amount was chosen on the basis of equivalence to insulin. Myo-inositol (Sigma-Aldrich Canada Ltd.) and D-chiro-inositol (Industrial Research Ltd., Wellington, New Zealand) were dissolved in water at an equal concentration to the amounts present in the BWE (Table 3) and 2 μL of each solution (0.1% v/v final concentration) was added directly to cells.
(§3) Rat H4IIE hepatoma cells (American Type Culture Collection, CRL 1548) were cultured following the method disclosed by Yau et al., (1998, Eur. J. Biochem. 253: 91-1). The H4IIE cells were maintained in α-modified Eagle's media containing 10% FBS, 2 mM glutamine, 25 μg·mL^−1 streptomycin and 25 units·mL^−1 penicillin. Cells were plated and grown to 70% confluence. All cells were placed into serum-free medium for 72 h before addition of stimulating agents to ensure entry into a quiescent state. […]
(§4) Cellular protein extracts were prepared by addition of 200 μL 2×SDS/gel loading buffer (0.125 M Tris pH 6.8, 2% SDS, 10% glycerol) to H4IIE cells in 12-well culture dishes. The samples were briefly sonicated, and protein content measured using the BCA protein assay kit. […] HRP was detected using the ECL chemiluminescent system after the membranes had been washed four times.
as §1
With `OC1C(O)C(O)C(O)C(O)C1O` [D-CI, D-chiro-inositol] the “phosphorylation of STAT3” value was “do not provide comparable stimulation”. In the case of `O[C@H]1[C@H](O)[C@@H](O)[C@H](O)[C@@H](O)[C@H]1O` [MI, myo-inositol], the “phosphorylation of STAT3” value is reported as “do not provide comparable stimulation”. “insulin: Insulin (Sigma-Aldrich) dissolved in water, positive comparator” was tested, and the “phosphorylation of STAT3” value was “phosphorylated in response to insulin”.

What follows are compounds tested on GSK3 (Ser21/9) (assay: Western blot of GSK3 phosphorylation in H4IIE cells). Details: 6 minutes.
Format: cell-based, rat
Experimental: as §2, §3, §4, §1
In the case of `OC1C(O)C(O)C(O)C(O)C1O` [D-CI, D-chiro-inositol], the “phosphorylation of GSK3” value is reported as “do not provide comparable stimulation”. For `O[C@H]1[C@H](O)[C@@H](O)[C@H](O)[C@@H](O)[C@H]1O` [MI, myo-inositol], the “phosphorylation of GSK3” value was “do not provide comparable stimulation”. With “insulin: Insulin (Sigma-Aldrich) dissolved in water, positive comparator” the “phosphorylation of GSK3” value was “phosphorylated in response to insulin”.

These compounds were tested on Akt (Ser473) (assay: Western blot of Akt phosphorylation in H4IIE cells). Details: 6 minutes.
Format: cell-based, rat
Experimental: as §2, §3, §4, §1
In the case of `OC1C(O)C(O)C(O)C(O)C1O` [D-CI, D-chiro-inositol], the “phosphorylation of Akt” value is reported as “do not provide comparable stimulation”. `O[C@H]1[C@H](O)[C@@H](O)[C@H](O)[C@@H](O)[C@H]1O` [MI, myo-inositol] was tested, and the “phosphorylation of Akt” value was “do not provide comparable stimulation”. For “insulin: Insulin (Sigma-Aldrich) dissolved in water, positive comparator”, the “phosphorylation of Akt” value was “phosphorylated in response to insulin”.

Source: patent US7993687B2, “Compositions and methods for management of diabetes” (priority 2006, dated 2011)
